According to patent US20040171688A1, “Carboxylic acids and derivatives thereof and pharmaceutical compositions containing them” (priority 1997, published 2004):

What was measured:
HNF-4α [1] = molecular target: T1, HNF-4α (Rattus norvegicus, UniProt P22449); assay: Gel mobility shift assay: His-HNF-4α binding to C3P apo CIII promoter oligonucleotide; type: biochemical; set-up: The full length HNF-4α1 cDNA cloned into 6His-pET11d vector was expressed in E.coli BL21 (DE3)plysS; 6His; made in house; host or cells: E. coli BL21 (DE3)plysS; settings: for direct effect on HNF-4α (summary): summary statement of Example 4
T1 sequence (P22449 1-464 isoform P22449-2): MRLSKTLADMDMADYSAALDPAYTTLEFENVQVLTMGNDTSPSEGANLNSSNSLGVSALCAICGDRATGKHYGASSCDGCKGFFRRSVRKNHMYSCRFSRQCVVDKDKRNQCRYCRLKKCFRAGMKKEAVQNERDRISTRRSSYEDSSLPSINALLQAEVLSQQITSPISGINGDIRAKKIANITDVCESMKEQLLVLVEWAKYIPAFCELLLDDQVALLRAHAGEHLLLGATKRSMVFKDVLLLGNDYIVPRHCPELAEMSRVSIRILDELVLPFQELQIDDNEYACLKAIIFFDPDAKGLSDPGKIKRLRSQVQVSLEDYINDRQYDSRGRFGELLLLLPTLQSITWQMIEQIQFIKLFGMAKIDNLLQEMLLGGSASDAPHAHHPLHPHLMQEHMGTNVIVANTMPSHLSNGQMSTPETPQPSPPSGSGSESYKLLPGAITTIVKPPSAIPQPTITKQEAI
Procedure: a. His-HNF-4I (14 ng) binding to C3P in the absence (lane 1) or presence of 10 μM each of myristoyl(14:0)-CoA (lane 2) or palmitoyl(16:0)-CoA (lane 3).
b. His-HNF-4I (20 ng) binding to C3P in the absence (lane 1) or presence of 10 μM each of stearoyl(18:0)-CoA (lane 2) or linolenoyl(18:3, w-3)-CoA (lane 3).
c. Activation of His-HNF-4I (14 ng) binding to C3P by increasing concentrations of myristoyl(14:0)-CoA. The gel section containing radiolabeled C3P bound to His-HNF-4I dimer is shown.
His-HNF-4α and acyl-CoA (as indicated) were preincubated for 30 min at 22° C. in 11 mM Hepes (pH 7.9) containing 50 mM KCl, 1 mM dithiothreitol. 2.5 mM MgCl2, 10% glycerol, 1 μg of poly(dI-dC) in a final volume of 20 μl. ^32P-labeled oligonucleotide (0.1 ng) consisting of the human C3P apo CIII promoter sequence,(−87/−66)^6 was then added, and incubation was continued for an additional 15 min. Protein-DNA complexes were resolved by 5% nondenaturing polyacrylamide gel in 0.6×TBE and quantitated by PhosphorImager analysis.
HNF-4α activity as a function of binding of long chain acyl-CoAs was evaluated by studying the binding of HNF-4α to its cognate C3P element of the apo CIII promoter sequence (−87/−66)^6 in the presence or absence of added acyl-CoAs of variable chain length, degree of saturation, and degree of substitution. Binding was verified by using a gel mobility shift assay. […] Activation was concentration dependent and maximal in the presence of myristoyl(14:0)-CoA added within a concentration range required for its binding to HNF-4α.

HNF-4α [2] = molecular target: T2, HNF-4α (Rattus norvegicus, UniProt P22449); assay: Ligand binding assay with [3H]palmitoyl(16:0)-CoA on recombinant GST-HNF-4α(LBD) or His-HNF-4α; settings: for EC50: competition with 8 nM [3H]palmitoyl(16:0)-CoA, read-out: EC50 (50% specific competition)
T2 construct: GST-HNF-4α(LBD) fusion protein consisting of amino acids 96-455 of wild type HNF-4α fused to GST; fused on or other part: Glutathione-S-transferase (GST) at the N-terminus of the LBD construct; 6-histidine tag on the full-length construct
T2 sequence (P22449 105-464 isoform P22449-2 limits assumed): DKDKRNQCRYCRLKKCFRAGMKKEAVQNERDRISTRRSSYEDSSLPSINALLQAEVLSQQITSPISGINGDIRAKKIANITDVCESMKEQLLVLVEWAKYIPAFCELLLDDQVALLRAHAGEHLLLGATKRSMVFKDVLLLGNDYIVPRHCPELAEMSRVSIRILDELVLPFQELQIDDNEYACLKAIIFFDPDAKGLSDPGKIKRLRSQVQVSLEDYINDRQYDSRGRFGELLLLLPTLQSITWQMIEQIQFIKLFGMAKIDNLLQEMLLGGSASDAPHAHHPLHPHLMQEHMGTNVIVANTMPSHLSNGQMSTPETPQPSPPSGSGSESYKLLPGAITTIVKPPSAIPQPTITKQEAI
Procedure: a. […] The respective recombinant proteins are incubated to equilibrium with [^3H]palmitoyl(16:0)-CoA (0.05 μCi) and with increasing nonlabeled palmitoyl(16:0)-CoA as indicated.
b. […] The respective recombinant proteins are incubated with 8 nM of [^3H]palmitoyl(16:0)-CoA (60 Ci/mmol) and with increasing nonlabeled myristoyl(14:0)-CoA as indicated. Percent bound refers to radiolabeled [^3H]palmitoyl(16:0)-CoA in the bound fraction. […] Percent bound refers to radiolabeled [^3H]palmitoyl(16:0)-CoA in the bound fraction.
Rat HNF-4α1 cDNA(pLEN4S)^1 was subcloned into the glutathione-S-transferase (GST) encoding pGEX-2T plasmid (Pharmacia) and the resultant plasmid was cleaved with smaI and AccI and religated to yield the GST-HNF-4α(LBD) fusion plasmid. […] The full length HNF-4α1 cDNA cloned into 6His-pET11d vector was expressed in E.coli BL21 (DE3)plysS.
Recombinant GST-HNF-4α(LBD) (100 pmol) or His-HNF-4α (100 pmol) were incubated for 60 min at 22° C. with [^3H]palmitoyl(16:0)-CoA (American RadiolabeledChemicals) in 100 μl of 10 mM phosphate buffer (pH 7.4). Competitor ligands or solvent carrier were added as indicated. Free and HNF-4α bound ^3[H]palmitoyl(16:0)-CoA were separated by […] and bound ligand was quantified by liquid scintillation counting. Nonspecific binding of [^3H]palmitoyl(16:0)-CoA was determined by its binding to the GST moiety or to carbonic anhydrase as nonrelevant protein.
Binding was exemplified with either the ligand binding domain of HNF-4α fused to glutathione-s-transferase (GST-HNF-4α(LBD)) or the full length HNF-4α protein tagged by 6 histidines (His-HNF-4α).

HNF-4α [3] = molecular target: T1, HNF-4α; assay: In vitro transcription assay induced by His-HNF-4α with HeLa nuclear extract; type: biochemical; set-up: The full length HNF-4α1 cDNA cloned into 6His-pET11d vector was expressed in E.coli BL21 (DE3)plysS; 6His; made in house; host or cells: E. coli BL21 (DE3)plysS
Procedure: a. Representative experiments showing in vitro transcription of the test template in the presence of increasing concentrations of His-HNF-4I and in the absence (lanes 1-3, 7-9) or presence of 10 μM of added palmitoyl(16:0)-CoA (lanes 4-6) or stearoyl(18:0)-CoA (lanes 10,11) as indicated. Correctly initiated transcripts of the test and control templates are denoted by (→) and ? , respectively.
b. HNF-4I-induced in vitro transcription in the absence (empty bars) or presence of 10 μM each of added palmitoyl(16:0)-CoA (filled bars) or stearoyl(18:0)-CoA (hatched bars). Fold transcription indicates the ratio of specific transcript produced by the test template over transcript from the control template normalized to the ratio observed without HNF-4a. The figure summarizes 5 independent experiments for each acyl-CoA. *-Significant as compared with the respective value in the absence of added ligand.
Reaction mixture contained 20 mM Hepes-KOH (pH 7.9), 5 mM MgCl2, 60 mM KCl, 8% glycerol, 2 mM DTT, 1 mM 3′-O-methyl-GTP, 10 units of T1RNase, 20 units of RNasin, 0.5 μg sonicated salmon sperm DNA and His-HNF-4α and test ligand as indicated. The mixture was preincubated for 30 min at 22° C. followed by adding 10 ng of pAdML200 control template consisting of the adenovirus major-late promoter (−400/+10) linked to a 200 bp G-less cassette and 200 ng of the test template consisting of three C3P copies of the apo CIII promoter sequence (−87/−66) upstream to a synthetic ovalbumin TATA box promoter in front of a 377 bp-G-less cassette. The mixture was further preincubated for 10 min at 22° C. followed by adding 40 μg of HeLa nuclear extract with additional preincubation for 30 min at 30° C. 0.5-mM ATP, 0.5 mM CTP, 25 μM UTP, and 10 μCi of [α-^32P]UTP (s.a. […], Amersham) were then added and the complete reaction mixture was incubated for 45 min at 30° C. in a final volume of 25 μl. The reaction was terminated by adding 175 μl of stop mix (0.1 M sodium acetate (pH 5.2), 10 mM EDTA, 0.1% SDS, 200 μg/ml tRNA) followed by phenol extraction and ethanol precipitation. RNA was resuspended in sample buffer containing 80% formamide and 10 mM Tris-HCl (pH 7.4) and separated on 5% polyacrylamide gel containing 7 M urea in TBE. Correctly initiated transcripts were quantitated by PhosphorImager analysis. The test DNA template was constructed by inserting into pC2AT19 plasmid a PCR-amplified oligonucleotide prepared by using the (C3P)3-TK-CAT plasmid as template and consisting of three copies of the C3P element of the Apo CIII promoter sequence (−87/−66) having an ECoRI and SSTI sites at the 5′ and 3′ ends, respectively. The resultant plasmid was cleaved with sphI and sacI and ligated to a synthetic oligonucleotide (5′-CGAGGTCCAC-[…]-3′) containing sequences of the HSV thymidine kinase promoter (−41/−29) and of the chicken ovalbumin promoter (−33/−21).
The effect of agonistic and antagonistic HNF-4α-ligands was further evaluated by analyzing the in vitro transcription rate, catalyzed by added HeLa nuclear extract and induced by recombinant HNF-4α, of a test template consisting of a 377 bp G-less cassette promoted by sequences of the HSV thymidine kinase and chicken ovalbumin promoters and enhanced by three C3P copies of the apo Clil gene promoter. Transcriptional activation by HNF-4α was evaluated in the presence and in the absence of added representative long chain fatty acyl-CoAs. […]

direct effect on HNF-4α (summary) (HNF-4α [1]) | EC50 (HNF-4α [2]; GST-HNF-4α(LBD) or His-HNF-4α) [nM] | effect on His-HNF-4α binding to C3P oligonucleotide (HNF-4α [1]; gel mobility shift, 10 μM acyl-CoA (FIG. 2)) | maximal binding (HNF-4α [2]; Scatchard analysis) | binding ratio at saturation (HNF-4α [2]; at saturation (FIG. 1A)) | Kd (HNF-4α [2]; saturation binding of [3H]palmitoyl(16:0)-CoA, Scatchard analysis, GST-HNF-4α(LBD) or His-HNF-4α, read-out: dissociation constant (Kd)) [nM] | effect on HNF-4α induced in vitro transcription (HNF-4α [3]; 10 μM added acyl-CoA (FIG. 3)) | HNF-4α transcriptional activity, agonist/antagonist character (summary) (HNF-4α [3]; summary statement of Example 4) | Structure (SMILES)
direct inhibition | 1600 |  |  |  |  |  |  | CC/C=C\C/C=C\C/C=C\C/C=C\C/C=C\C/C=C\CCC(=O)SCCNC(=O)CCNC(=O)[C@H](O)C(C)(C)COP(=O)(O)OP(=O)(O)OC[C@H]1O[C@@H](n2cnc3c(N)ncnc32)[C@H](O)[C@@H]1OP(=O)(O)O [Docosahexaenoyl(22:6)-CoA]
direct inhibition | 600 |  |  |  |  |  |  | CC/C=C\C/C=C\C/C=C\C/C=C\C/C=C\CCCC(=O)SCCNC(=O)CCNC(=O)[C@H](O)C(C)(C)COP(=O)(O)OP(=O)(O)OC[C@H]1O[C@@H](n2cnc3c(N)ncnc32)[C@H](O)[C@@H]1OP(=O)(O)O [Eicosapentaenoyl(20:5)-CoA]
direct inhibition |  | potent inhibition |  |  |  |  |  | CC/C=C\C/C=C\C/C=C\CCCCCCCC(=O)SCCNC(=O)CCNC(=O)[C@H](O)C(C)(C)COP(=O)(O)OP(=O)(O)OC[C@H]1O[C@@H](n2cnc3c(N)ncnc32)[C@H](O)[C@@H]1OP(=O)(O)O [Linolenoyl(18:3)-CoA]
 | 2600 |  | 1 mol palmitoyl(16:0)-CoA/mol HNF-4I | ~1 mole of fatty acyl-CoA/mole of HNF-4α | 2600 | activated | activators | CCCCCCCCCCCCCCCC(=O)SCCNC(=O)CCNC(=O)[C@H](O)C(C)(C)COP(=O)(O)OP(=O)(O)OC[C@H]1O[C@@H](n2cnc3c(N)ncnc32)[C@H](O)[C@@H]1OP(=O)(O)O [Palmitoyl(16:0)-CoA, reference compound]
